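A five-concentration, 48-hour dose response in 96-well plates underlies each endpoint, interpolated linearly between surrounding concentrations. At the GI50, growth is halved.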 The source made the active and inactive calls. Cut-off read from the data, not from the text of the source: active = GI50 up to about 1.1 µM and inactive = higher.
Legend:
Assay in all cases: inhibition of tumour cell growth, NCI panel, 48 h
[1] = system: UACC-257
[2] = system: HT-29
[3] = system: NCI-H23
[4] = system: SF-539
[5] = system: SK-MEL-2
[6] = system: Malme-3M
[7] = system: SNB-75
[8] = system: SF-295
[9] = system: LOX IMVI
[10] = system: CAKI-1
[11] = system: SN12C
[12] = system: MOLT-4
[13] = system: DU-145
[14] = system: MCF7
[15] = system: M14
[16] = system: HCC 2998
[17] = system: CCRF-CEM
[18] = system: 786-0
[19] = system: SW-620
[20] = system: SK-MEL-28
[21] = system: BT-549
[22] = system: KM12
[23] = system: PC-3
[24] = system: NCI-H460
[25] = system: A549
[26] = system: NCI-H226
[27] = system: COLO 205
[28] = system: IGROV-1
[29] = system: UACC-62
[30] = system: SNB-19
[31] = system: OVCAR-4
[32] = system: EKVX
[33] = system: U-251
[34] = system: MDA-MB-435
[35] = system: HL-60
[36] = system: SK-OV-3
[37] = system: HCT-116
[38] = system: SF-268
[39] = system: TK-10
[40] = system: MDA-MB-231
[41] = system: K562
[42] = system: OVCAR-3
[43] = system: HCT-15
[44] = system: HOP-62
[45] = system: T47D
[46] = system: SK-MEL-5
[47] = system: UO-31
[48] = system: MDA-N
[49] = system: OVCAR-8
[50] = system: SR
[51] = system: NCI/ADR-RES
[52] = system: RPMI-8226
[53] = system: Hs-578T
[54] = system: NCI-H522
[55] = system: RXF 393
[56] = system: OVCAR-5
[57] = system: HOP-92
[58] = system: ACHN
[59] = system: A498

CCOC(=O)CCc1cn2cc(Br)nc(OC)c2n1
GI50 [1]: > 100 µM (inactive)
GI50 [2]: 17.9 µM (inactive)
GI50 [3]: 67.5 µM (inactive)
GI50 [4]: 50.5 µM (inactive)
GI50 [5]: > 100 µM (inactive)
GI50 [6]: > 100 µM (inactive)
GI50 [7]: 26.1 µM (inactive)
GI50 [8]: 57.7 µM (inactive)
GI50 [9]: 90.2 µM (inactive)
GI50 [10]: > 100 µM (inactive)
GI50 [11]: 75.9 µM (inactive)
GI50 [12]: 13.3 µM (inactive)
GI50 [13]: 51.6 µM (inactive)
GI50 [14]: 16.2 µM (inactive)
GI50 [15]: > 100 µM (inactive)
GI50 [16]: > 100 µM (inactive)
GI50 [17]: 10.1 µM (inactive)
GI50 [18]: > 100 µM (inactive)
GI50 [19]: 16.2 µM (inactive)
GI50 [20]: > 100 µM (inactive)
GI50 [21]: > 100 µM (inactive)
GI50 [22]: 5.41 µM (inactive)
GI50 [23]: 50.9 µM (inactive)
GI50 [24]: > 100 µM (inactive)
GI50 [25]: 62.4 µM (inactive)
GI50 [26]: > 100 µM (inactive)
GI50 [27]: 9.12 µM (inactive)
GI50 [28]: 65.6 µM (inactive)
GI50 [29]: 36 µM (inactive)
GI50 [30]: > 100 µM (inactive)
GI50 [31]: > 100 µM (inactive)
GI50 [32]: > 100 µM (inactive)
GI50 [33]: 65.6 µM (inactive)
GI50 [34]: 2.82 µM (inactive)
GI50 [35]: > 100 µM (inactive)
GI50 [36]: 48.1 µM (inactive)
GI50 [37]: 14.8 µM (inactive)
GI50 [38]: > 100 µM (inactive)
GI50 [39]: > 100 µM (inactive)
GI50 [40]: 39.2 µM (inactive)
GI50 [41]: 4.75 µM (inactive)
GI50 [42]: 57.7 µM (inactive)
GI50 [43]: 6.5 µM
GI50 [44]: 53.2 µM (inactive)
GI50 [45]: 46.3 µM (inactive)
GI50 [46]: 7.85 µM (inactive)
GI50 [47]: 23.2 µM (inactive)
GI50 [48]: 3.1 µM (inactive)
GI50 [49]: 59.2 µM (inactive)
GI50 [50]: 72.6 µM (inactive)
GI50 [51]: 24.9 µM (inactive)
GI50 [52]: 44 µM (inactive)
GI50 [53]: > 100 µM (inactive)
GI50 [54]: 81.8 µM (inactive)
GI50 [55]: 40.2 µM (inactive)

CCCCSC1=N/C(=C\c2ccccc2O)C(Cl)=N1
GI50 [1]: > 100 µM (inactive)
GI50 [2]: > 100 µM (inactive)
GI50 [3]: > 100 µM (inactive)
GI50 [4]: > 100 µM (inactive)
GI50 [5]: > 100 µM (inactive)
GI50 [6]: > 100 µM (inactive)
GI50 [7]: > 100 µM (inactive)
GI50 [8]: > 100 µM (inactive)
GI50 [9]: > 100 µM (inactive)
GI50 [10]: > 100 µM (inactive)
GI50 [11]: > 100 µM (inactive)
GI50 [56]: > 100 µM (inactive)
GI50 [12]: > 100 µM (inactive)
GI50 [13]: > 100 µM (inactive)
GI50 [14]: > 100 µM (inactive)
GI50 [15]: > 100 µM (inactive)
GI50 [16]: > 100 µM (inactive)
GI50 [18]: > 100 µM (inactive)
GI50 [19]: > 100 µM (inactive)
GI50 [20]: > 100 µM (inactive)
GI50 [21]: > 100 µM (inactive)
GI50 [22]: > 100 µM (inactive)
GI50 [23]: > 100 µM (inactive)
GI50 [24]: > 100 µM (inactive)
GI50 [57]: > 100 µM (inactive)
GI50 [58]: > 100 µM (inactive)
GI50 [59]: > 100 µM (inactive)
GI50 [25]: > 100 µM (inactive)
GI50 [26]: > 100 µM (inactive)
GI50 [27]: > 100 µM (inactive)
GI50 [28]: > 100 µM (inactive)
GI50 [29]: > 100 µM (inactive)
GI50 [30]: > 100 µM (inactive)
GI50 [31]: > 100 µM (inactive)
GI50 [32]: > 100 µM (inactive)
GI50 [33]: > 100 µM (inactive)
GI50 [34]: > 100 µM (inactive)
GI50 [35]: > 100 µM (inactive)
GI50 [36]: > 100 µM (inactive)
GI50 [37]: > 100 µM (inactive)
GI50 [38]: > 100 µM (inactive)
GI50 [39]: > 100 µM (inactive)
GI50 [40]: > 100 µM (inactive)
GI50 [42]: > 100 µM (inactive)
GI50 [43]: > 100 µM
GI50 [44]: > 100 µM (inactive)
GI50 [45]: > 100 µM (inactive)
GI50 [47]: > 100 µM (inactive)
GI50 [48]: > 100 µM (inactive)
GI50 [49]: > 100 µM (inactive)
GI50 [51]: > 100 µM (inactive)
GI50 [52]: > 100 µM (inactive)
GI50 [53]: > 100 µM (inactive)
GI50 [54]: > 100 µM (inactive)
GI50 [55]: > 100 µM (inactive)

CCCC(=O)n1[nH]c(=O)n(-c2ccc(Cl)cc2)c1=O
GI50 [1]: > 100 µM (inactive)
GI50 [2]: > 100 µM (inactive)
GI50 [3]: > 100 µM (inactive)
GI50 [5]: > 100 µM (inactive)
GI50 [6]: 43.4 µM (inactive)
GI50 [7]: > 100 µM (inactive)
GI50 [8]: > 100 µM (inactive)
GI50 [9]: > 100 µM (inactive)
GI50 [10]: > 100 µM (inactive)
GI50 [11]: > 100 µM (inactive)
GI50 [56]: > 100 µM (inactive)
GI50 [12]: > 100 µM (inactive)
GI50 [13]: > 100 µM (inactive)
GI50 [14]: > 100 µM (inactive)
GI50 [15]: > 100 µM (inactive)
GI50 [16]: > 100 µM (inactive)
GI50 [17]: > 100 µM (inactive)
GI50 [18]: > 100 µM (inactive)
GI50 [19]: > 100 µM (inactive)
GI50 [20]: > 100 µM (inactive)
GI50 [21]: > 100 µM (inactive)
GI50 [22]: > 100 µM (inactive)
GI50 [23]: > 100 µM (inactive)
GI50 [24]: > 100 µM (inactive)
GI50 [58]: > 100 µM (inactive)
GI50 [25]: > 100 µM (inactive)
GI50 [26]: > 100 µM (inactive)
GI50 [27]: > 100 µM (inactive)
GI50 [28]: > 100 µM (inactive)
GI50 [29]: > 100 µM (inactive)
GI50 [30]: > 100 µM (inactive)
GI50 [31]: > 100 µM (inactive)
GI50 [32]: > 100 µM (inactive)
GI50 [33]: > 100 µM (inactive)
GI50 [34]: > 100 µM (inactive)
GI50 [35]: > 100 µM (inactive)
GI50 [36]: > 100 µM (inactive)
GI50 [37]: > 100 µM (inactive)
GI50 [38]: > 100 µM (inactive)
GI50 [39]: > 100 µM (inactive)
GI50 [40]: > 100 µM (inactive)
GI50 [41]: > 100 µM (inactive)
GI50 [42]: > 100 µM (inactive)
GI50 [43]: > 100 µM
GI50 [44]: > 100 µM (inactive)
GI50 [45]: > 100 µM (inactive)
GI50 [46]: > 100 µM (inactive)
GI50 [47]: > 100 µM (inactive)
GI50 [48]: > 100 µM (inactive)
GI50 [49]: > 100 µM (inactive)
GI50 [50]: > 100 µM (inactive)
GI50 [51]: > 100 µM (inactive)
GI50 [52]: > 100 µM (inactive)
GI50 [53]: > 100 µM (inactive)
GI50 [55]: > 100 µM (inactive)

From ChEMBL document CHEMBL1201862, “PubChem BioAssay data set” (2004)
